Reference: patent US20250179059A1 (The Regents of the University of California, priority 2021, published 2025)
pIC50: −log10 of the molar value. Like-named read-outs stand apart in the source and are kept apart here.

How the values were obtained:
[1] = biological target: T1, human BRD4 bromodomain II (Homo sapiens, UniProt O60885); test: Bromodomain binding assay (AlphaScreen), BRD4 BDII
T1 construct: human BRD4 bromodomain II [based on Genbank NM_058243, residues 349-460]; host or cells: E. coli
How it was run: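 Inhibition of acetyl-H4 peptide binding to human BRD4 bromodomains is measured by bead-based proximity (AlphaScreen) in pH 7.5 HEPES buffer containing 0.05% CHAPS and 0.1% BSA. Ten compound concentrations in 3-fold steps give competitive binding IC50s.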

[2] = test system: human SKM-1 acute myeloid leukemia cells; test: SKM-1 antiproliferation cell-based assay (ATPlite); conditions: Homo sapiens
How it was run: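 Log-phase cells in RPMI 1640/15% FBS were seeded at 34722 cells/mL and exposed for 4 days to nine-concentration DMSO serial dilutions in triplicate. Viability was read as ATP luminescence (ATPlite 1step), and IC50 values came from variable-slope non-linear regression.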

[3] = AlphaScreen assay, Table C2, read-out: BRD4 BDII IC50
[4] = SKM-1, 96 h, SKM-1 antiproliferation assay, 4 days, Table C2
[5] = BRD4 BDII AlphaScreen assay, read-out: BRD4 BD2 IC50
[6] = SKM-1, SKM-1 antiproliferation assay

| Compound | pIC50 [1, 3] | GI50 [2, 4] [nM] | pIC50 [1, 5] | GI50 [2, 6] [nM] |
| --- | --- | --- | --- | --- |
| Cn1ccn(-c2ccc(-c3cc(F)cc(-c4ccnc(N5CCN(C6CCC6)CC5)c4)c3O)cc2Cl)c1=O [Example 619, 1-(3-chloro-3′-(2-(4-cyclobutylpiperazin-l-yl)pyridin-4-yl)-5′-fluoro-2′-hydroxy-[1,1′-biphenyl]-4-yl)-3-methyl-1H-imidazol-2(3H)-one] | 9.00 to 11.00 | 0.3 to 30 | – | – |
| CC(C)N1CCCC12CCN(c1cccc(-c3cc(F)cc(-c4ccc(-n5ccn(C)c5=O)c(Cl)c4)c3O)c1)C2 (stereo not drawn) [Example 909, 1-(3-chloro-5′-fluoro-2′-hydroxy-3″-(1-isopropyl-1,7-diazaspiro[4.4]nonan-7-yl)-[1,1′:3′,1″-terphenyl]-4-yl)-3-methyl-1H-imidazol-2(3H)-one] | – | – | 8.00 to 9.00 | 30 to 300 |
| CN1CCN(c2cc(-c3cc(F)cc(-c4ccc(N5CCN(C)C5=O)c(Cl)c4)c3O)ccn2)CC1 [Example 441, 1-(3-chloro-5′-fluoro-2′-hydroxy-3′-(2-(4-methylpiperazin-1-yl)pyridin-4-yl)-[1,1′-biphenyl]-4-yl)-3-methylimidazolidin-2-one] | 8.00 to 9.00 | 30 to 300 | – | – |
| CN1CCN(c2ccc(-c3cc(F)cc(-c4ccnc(C5=CCNCC5)c4)c3O)cc2Cl)C1=O [Example 379, 1-(3-chloro-5′-fluoro-2′-hydroxy-3′-(1′,2′,3′,6′-tetrahydro-[2,4′-bipyridin]-4-yl)-[1,1′-biphenyl]-4-yl)-3-methylimidazolidin-2-one] | 8.00 to 9.00 | 30 to 300 | – | – |
| Cn1ccn(-c2ccc(-c3cc(F)cc(-c4ccnc(N5CCN(Cc6ccccc6)CC5)c4)c3O)cc2Cl)c1=O [Example 629, 1-(3′-(2-(4-benzylpiperazin-1-yl)pyridin-4-yl)-3-chloro-5′-fluoro-2′-hydroxy-[1,1′-biphenyl]-4-yl)-3-methyl-1H-imidazol-2(3H)-one] | 9.00 to 11.00 | 30 to 300 | – | – |
| Cn1ccn(-c2ccc(-c3cc(F)cc(-c4ccnc(N5CCCN(C(C)(C)C)CC5)c4)c3O)cc2Cl)c1=O [Example 840, 1-(3′-(2-(4-(tert-butyl)-1,4-diazepan-1-yl)pyridin-4-yl)-3-chloro-5′-fluoro-2′-hydroxy-[1,1′-biphenyl]-4-yl)-3-methyl-1H-imidazol-2(3H)-one] | 9.00 to 11.00 | 0.3 to 30 | – | – |
| CC(=O)Nc1c(F)cc(-c2cccc(-c3cc(N4CCNCC4)no3)c2O)cc1OC1CC1 [Example 135, N-(3-cyclopropoxy-5-fluoro-2′-hydroxy-3′-(3-(piperazin-1-yl)isoxazol-5-yl)-[1,1′-biphenyl]-4-yl)acetamide 2,2,2-trifluoroacetate] | 8.00 to 9.00 | 300 to 3000 | – | – |
| CC(C)N1CC2CN(c3cc(-c4cc(F)cc(-c5ccc(-n6ccn(C)c6=O)c(Cl)c5)c4O)ccn3)CC21 (stereo not drawn) [Example 747, 1-(3-chloro-5′-fluoro-2′-hydroxy-3′-(2-(6-isopropyl-3,6-diazabicyclo[3.2.0]heptan-3-yl)pyridin-4-yl)-[1,1′-biphenyl]-4-yl)-3-methyl-1H-imidazol-2(3H)-one] | 9.00 to 11.00 | 0.3 to 30 | – | – |
| Cn1ccn(-c2ccc(-c3cc(F)cc(-c4cccc(-c5ccc(O)cc5)c4)c3O)cc2Cl)c1=O [Example 857] | – | – | 7.00 to 8.00 | 300 to 3000 |
| CC1CN(c2cc(-c3cccc(-c4ccc(N5CCCC5=O)c(Cl)c4)c3O)ccn2)CC(C)N1 (stereo not drawn) [Example 267, 1-(3-chloro-3′-(2-(3,5-dimethylpiperazin-1-yl)pyridin-4-yl)-2′-hydroxy-[1,1′-biphenyl]-4-yl)pyrrolidin-2-one] | 8.00 to 9.00 | 30 to 300 | – | – |
| Cn1ccn(-c2ccc(-c3cc(F)cc(-c4cc(NS(C)(=O)=O)nc(N5CCNCC5)c4)c3O)cc2Cl)c1=O [Example 439, N-(4-(3′-chloro-5-fluoro-2-hydroxy-4′-(3-methyl-2-oxo-2,3-dihydro-1H-imidazol-1-yl)-[1,1′-biphenyl]-3-yl)-6-(piperazin-1-yl)pyridin-2-yl)methanesulfonamide] | 9.00 to 11.00 | 30 to 300 | – | – |
| CCC1(O)CCN(c2cc(-c3cc(F)cc(-c4ccc(-n5ccn(C)c5=O)c(Cl)c4)c3O)ccn2)C1 (stereo not drawn) [Example 737, 1-(3-chloro-3′-(2-(3-ethyl-3-hydroxypyrrolidin-1-yl)pyridin-4-yl)-5′-fluoro-2′-hydroxy-[1,1′-biphenyl]-4-yl)-3-methyl-1H-imidazol-2(3H)-one] | 9.00 to 11.00 | 0.3 to 30 | – | – |
| CC(=O)Nc1ccc(-c2cccc(-c3cc(F)nc(N4CCNCC4)c3)c2O)cc1F [Example 291, N-(3-fluoro-3′-(2-fluoro-6-(piperazin-1-yl)pyridin-4-yl)-2′-hydroxy-[1,1′-biphenyl]-4-yl)acetamide] | 7.00 to 8.00 | 300 to 3000 | – | – |
| Cn1ccn(-c2ccc(-c3cc(F)cc(-c4cncc(N5CCC(N)CC5)c4)c3O)cc2Cl)c1=O [Example 459, 1-(3′-(5-(4-aminopiperidin-1-yl)pyridin-3-yl)-3-chloro-5′-fluoro-2′-hydroxy-[1,1′-biphenyl]-4-yl)-3-methyl-1H-imidazol-2(3H)-one] | 8.00 to 9.00 | 0.3 to 30 | – | – |

Other lines, results leading:

| pIC50 [1, 3] | GI50 [2, 4] [nM] | pIC50 [1, 5] | GI50 [2, 6] [nM] | Compound |
| --- | --- | --- | --- | --- |
| 9.00 to 11.00 | 0.3 to 30 | – | – | CN(C)C1(C)CCN(c2cc(-c3cc(F)cc(-c4ccc(-n5ccn(C)c5=O)c(Cl)c4)c3O)ccn2)C1 (stereo not drawn) [Example 741, 1-(3-chloro-3′-(2-(3-(dimethylamino)-3-methylpyrrolidin-1-yl)pyridin-4-yl)-5′-fluoro-2′-hydroxy-[1,1′-biphenyl]-4-yl)-3-methyl-1H-imidazol-2(3H)-one] |
| 9.00 to 11.00 | 0.3 to 30 | – | – | CC(=O)Nc1cc(-c2cc(F)cc(-c3ccc(-n4ccn(C)c4=O)c(Cl)c3)c2O)cc(N2CCNCC2)n1 [Example 442, N-(4-(3′-chloro-5-fluoro-2-hydroxy-4′-(3-methyl-2-oxo-2,3-dihydro-1H-imidazol-1-yl)-[1,1′-biphenyl]-3-yl)-6-(piperazin-1-yl)pyridin-2-yl)acetamide] |
| 8.00 to 9.00 | 30 to 300 | – | – | CN1CCN(c2ccc(-c3cc(F)cc(-c4cnc(OCCO)c(N5CCNCC5)c4)c3O)cc2Cl)C1=O [Example 392, 1-(3-chloro-5′-fluoro-2′-hydroxy-3′-(6-(2-hydroxyethoxy)-5-(piperazin-1-yl)pyridin-3-yl)-[1,1′-biphenyl]-4-yl)-3-methylimidazolidin-2-one] |
| < 7.00 | 300 to 3000 | – | – | O=C1NCCCN1c1ccc(-c2cccc(-c3ccnc(N4CCNCC4)c3)c2O)cc1F [Example 277, 1-(3-fluoro-2′-hydroxy-3′-(2-(piperazin-1-yl)pyridin-4-yl)-[1,1′-biphenyl]-4-yl)tetrahydropyrimidin-2(1H)-one] |
| 9.00 to 11.00 | 0.3 to 30 | – | – | CN[C@H]1CCN(c2cc(-c3cc(F)cc(-c4ccc(-n5ccn(C)c5=O)c(Cl)c4)c3O)ccn2)C1 [Example 429] |
| – | – | 7.00 to 8.00 | 30 to 300 | Cn1ccn(-c2ccc(-c3cc(F)cc(-c4cccc(-c5ccc(N)cc5)c4)c3O)cc2Cl)c1=O [Example 855] |
| 8.00 to 9.00 | 300 to 3000 | – | – | CC1CN(c2cc(-c3cccc(-c4ccc(N5CCCC5=O)c(F)c4)c3O)ccn2)CC(C)N1 (stereo not drawn) [Example 266, 1-(3′-(2-(3,5-dimethylpiperazin-1-yl)pyridin-4-yl)-3-fluoro-2′-hydroxy-[1,1′-biphenyl]-4-yl)pyrrolidin-2-one] |
| 7.00 to 8.00 | 30 to 300 | – | – | Cn1ccn(-c2ccc(-c3cc(Cl)cc(-c4cncc(N5CC[C@H](N)C5)c4)c3O)cc2Cl)c1=O [Example 510, (S)-1-(3′-(5-(3-aminopyrrolidin-1-yl)pyridin-3-yl)-3,5′-dichloro-2′-hydroxy-[1,1′-biphenyl]-4-yl)-3-methyl-1H-imidazol-2(3H)-one] |
| 8.00 to 9.00 | 0.3 to 30 | – | – | Cc1cc(-c2cc(-c3cn[nH]c3)cc(N3CCNCC3)c2)c(O)c(-c2ccc(-n3ccn(C)c3=O)c(Cl)c2)c1 [Example 570] |
| 8.00 to 9.00 | 30 to 300 | – | – | CC(=O)Nc1ccc(-c2cc(F)cc(-c3ccc(C#N)c(N4CCNCC4)c3)c2O)cc1F [Example 235, N-(4″-cyano-3,5′-difluoro-2′-hydroxy-3″-(piperazin-1-yl)-[1,1′:3′,1″-terphenyl]-4-yl)acetamide] |
| 9.00 to 11.00 | 30 to 300 | – | – | Cn1ccn(-c2ccc(-c3cc(F)cc(-c4ccnc(N5CC6CC6(N)C5)c4)c3O)cc2Cl)c1=O (stereo not drawn) [Example 721, 1-(3′-(2-(1-amino-3-azabicyclo[3.1.0]hexan-3-yl)pyridin-4-yl)-3-chloro-5′-fluoro-2′-hydroxy-[1,1′-biphenyl]-4-yl)-3-methyl-1H-imidazol-2(3H)-one] |
| 8.00 to 9.00 | 0.3 to 30 | – | – | CC(=O)Nc1cc(-c2cc(F)cc(-c3ccc(-n4ccn(C)c4=O)c(Cl)c3)c2O)cc(N2CC[C@H](N(C)C)C2)n1 [Example 515, (S)-N-(4-(3′-chloro-5-fluoro-2-hydroxy-4′-(3-methyl-2-oxo-2,3-dihydro-1H-imidazol-1-yl)-[1,1′-biphenyl]-3-yl)-6-(3-(dimethylamino)pyrrolidin-1-yl)pyridin-2-yl)acetamide] |
| 7.00 to 8.00 | 300 to 3000 | – | – | O=C1CCCN1c1ccc(-c2cc(F)cc(-c3ccnc(N4CC5(CNC5)C4)c3)c2O)cc1Cl [Example 324, 1-(3′-(2-(2,6-diazaspiro[3.3]heptan-2-yl)pyridin-4-yl)-3-chloro-5′-fluoro-2′-hydroxy-[1,1′-biphenyl]-4-yl)pyrrolidin-2-one] |
